Assay results: ChEMBL document CHEMBL3885881, “DrugMatrix”

Organism: Rattus norvegicus
Experiment: DrugMatrix - Regimen: Daily Repeat
Type: toxicity, organism-based, Sprague-Dawley
Parameters: regimen Daily Repeat, gender Male, age 6-8 weeks
Settings: in vivo, po, route oral GAVAGE, vehicle 100 % WATER; for ABSOLUTE BASOPHIL / ABSOLUTE EOSINOPHIL / ABSOLUTE LYMPHOCYTE / ABSOLUTE MONOCYTE / ABSOLUTE SEGMENTED NEUTROPHIL / BASOPHIL / EOSINOPHIL / ERYTHROCYTE COUNT / HEMATOCRIT / LEUKOCYTE COUNT / LYMPHOCYTE / MEAN CORPUSCULAR HEMOGLOBIN / MEAN CORPUSCULAR HEMOGLOBIN CONCENTRATION / MEAN CORPUSCULAR VOLUME / MONOCYTE / NEUTROPHIL / NUCLEATED RED BLOOD CELLS / PLATELET COUNT: tissue Blood; for ALANINE AMINOTRANSFERASE / ALBUMIN / ALKALINE PHOSPHATASE / ASPARTATE AMINOTRANSFERASE / CARBON DIOXIDE / CHLORIDE / CHOLESTEROL / CREATINE PHOSPHOKINASE / CREATININE / LIPASE / POTASSIUM / TOTAL BILIRUBIN / TOTAL PROTEIN / BLOOD UREA NITROGEN: tissue Plasma
[1] = 0 mg/kg, 72 h, dose level Control, time 3 day
[2] = 0 mg/kg, 120 h, dose level Control, time 5 day
[3] = 44 mg/kg, 72 h, dose level Low, time 3 day
[4] = 44 mg/kg, 120 h, dose level Low, time 5 day

## NC(=O)c1ncn([C@@H]2O[C@H](CO)[C@@H](O)[C@H]2O)n1 [RIBAVIRIN]
[1]
  ABSOLUTE BASOPHIL: 0 CELLS/uL
  ABSOLUTE EOSINOPHIL: 40 CELLS/uL
  ABSOLUTE LYMPHOCYTE: 13599.5 CELLS/uL
  ABSOLUTE MONOCYTE: 239.33 CELLS/uL
  ABSOLUTE SEGMENTED NEUTROPHIL: 1021.17 CELLS/uL
  BASOPHIL: 0%
  EOSINOPHIL: 0.33%
  ERYTHROCYTE COUNT: 5.71 x10E6/uL
  HEMATOCRIT: 36.35%
  LEUKOCYTE COUNT: 14.9 x10E3/uL
  LYMPHOCYTE: 91%
  MEAN CORPUSCULAR HEMOGLOBIN: 24.62 pg
  MEAN CORPUSCULAR HEMOGLOBIN CONCENTRATION: 38.65 G/DL
  MEAN CORPUSCULAR VOLUME: 63.7 fL
  MONOCYTE: 1.5%
  NEUTROPHIL: 7.17%
  NUCLEATED RED BLOOD CELLS: 0.33 /100WBC
  PLATELET COUNT: 1225.5 x10E3/uL
  ALANINE AMINOTRANSFERASE: 48.5 u/L
  ALBUMIN: 4.18 G/DL
  ALKALINE PHOSPHATASE: 390.83 u/L
  ASPARTATE AMINOTRANSFERASE: 89 u/L
  CARBON DIOXIDE: 24.83 mmol/L
  CHLORIDE: 100.83 MEQ/L
  CHOLESTEROL: 72.5 mg/dL
  CREATINE PHOSPHOKINASE: 503 u/L
  CREATININE: 0.2 mg/dL
  LIPASE: 9.83 u/L
  POTASSIUM: 6.16 MEQ/L
  TOTAL BILIRUBIN: 0.2 mg/dL
  TOTAL PROTEIN: 5.8 G/DL
[2]
  ABSOLUTE BASOPHIL: 0 CELLS/uL
  ABSOLUTE EOSINOPHIL: 21 CELLS/uL
  ABSOLUTE LYMPHOCYTE: 14288.5 CELLS/uL
  ABSOLUTE MONOCYTE: 205.33 CELLS/uL
  ABSOLUTE SEGMENTED NEUTROPHIL: 968.5 CELLS/uL
  BASOPHIL: 0%
  EOSINOPHIL: 0.17%
  ERYTHROCYTE COUNT: 5.83 x10E6/uL
  HEMATOCRIT: 36.53%
  LEUKOCYTE COUNT: 15.48 x10E3/uL
  LYMPHOCYTE: 92%
  MEAN CORPUSCULAR HEMOGLOBIN: 24.72 pg
  MEAN CORPUSCULAR HEMOGLOBIN CONCENTRATION: 39.43 G/DL
  MEAN CORPUSCULAR VOLUME: 62.68 fL
  MONOCYTE: 1.33%
  NEUTROPHIL: 6.5%
  NUCLEATED RED BLOOD CELLS: 0.17 /100WBC
  PLATELET COUNT: 1280.5 x10E3/uL
  ALANINE AMINOTRANSFERASE: 50 u/L
  ALBUMIN: 4.28 G/DL
  ALKALINE PHOSPHATASE: 380.17 u/L
  ASPARTATE AMINOTRANSFERASE: 82.67 u/L
  BLOOD UREA NITROGEN: 15.33 mg/dL
  CARBON DIOXIDE: 27.17 mmol/L
  CHLORIDE: 100.33 MEQ/L
  CHOLESTEROL: 60.67 mg/dL
  CREATINE PHOSPHOKINASE: 441.5 u/L
  CREATININE: 0.16 mg/dL
  LIPASE: 9.17 u/L
  POTASSIUM: 6.86 MEQ/L
  TOTAL BILIRUBIN: 0.2 mg/dL
  TOTAL PROTEIN: 6.12 G/DL
[3]
  ABSOLUTE BASOPHIL: 0 CELLS/uL
  ABSOLUTE EOSINOPHIL: 33.67 CELLS/uL
  ABSOLUTE LYMPHOCYTE: 13109.33 CELLS/uL
  ABSOLUTE MONOCYTE: 126 CELLS/uL
  ABSOLUTE SEGMENTED NEUTROPHIL: 1164.33 CELLS/uL
  BASOPHIL: 0%
  EOSINOPHIL: 0.33%
  ERYTHROCYTE COUNT: 5.44 x10E6/uL
  HEMATOCRIT: 33.17%
  LEUKOCYTE COUNT: 14.43 x10E3/uL
  LYMPHOCYTE: 91.33%
  MEAN CORPUSCULAR HEMOGLOBIN: 23.47 pg
  MEAN CORPUSCULAR HEMOGLOBIN CONCENTRATION: 38.53 G/DL
  MEAN CORPUSCULAR VOLUME: 60.97 fL
  MONOCYTE: 0.67%
  NEUTROPHIL: 7.67%
  NUCLEATED RED BLOOD CELLS: 0 /100WBC
  PLATELET COUNT: 1365.67 x10E3/uL
  ALANINE AMINOTRANSFERASE: 53 u/L
  ALBUMIN: 4.3 G/DL
  ALKALINE PHOSPHATASE: 371.67 u/L
  ASPARTATE AMINOTRANSFERASE: 93.67 u/L
  BLOOD UREA NITROGEN: 13.67 mg/dL
  CARBON DIOXIDE: 27.67 mmol/L
  CHLORIDE: 101 MEQ/L
  CHOLESTEROL: 71.33 mg/dL
  CREATINE PHOSPHOKINASE: 286.67 u/L
  CREATININE: 0.17 mg/dL
  LIPASE: 9 u/L
  POTASSIUM: 6.94 MEQ/L
  TOTAL BILIRUBIN: 0.27 mg/dL
  TOTAL PROTEIN: 5.97 G/DL
[4]
  ABSOLUTE BASOPHIL: 0 CELLS/uL
  ABSOLUTE EOSINOPHIL: 0 CELLS/uL
  ABSOLUTE LYMPHOCYTE: 17320.33 CELLS/uL
  ABSOLUTE MONOCYTE: 316 CELLS/uL
  ABSOLUTE SEGMENTED NEUTROPHIL: 1397 CELLS/uL
  BASOPHIL: 0%
  EOSINOPHIL: 0%
  ERYTHROCYTE COUNT: 5.46 x10E6/uL
  HEMATOCRIT: 34.3%
  LEUKOCYTE COUNT: 19.03 x10E3/uL
  LYMPHOCYTE: 91%
  MEAN CORPUSCULAR HEMOGLOBIN: 24.7 pg
  MEAN CORPUSCULAR HEMOGLOBIN CONCENTRATION: 39.23 G/DL
  MEAN CORPUSCULAR VOLUME: 62.87 fL
  MONOCYTE: 1.67%
  NEUTROPHIL: 7.33%
